Numbering of substitutions follows the chain as printed.
Assays:
Test in all cases: E. coli hemG growth inhibition by herbicide, AtPPO1 variant
Format in all cases: cell-based
Settings in all cases: read-out: percentage growth inhibition
AtPPO1 Y362C = target: T1, AtPPO1 Y362C (Arabidopsis thaliana, UniProt P55826, Y362C)
T1 construct: expressed in transfected cells; host or cells: E. coli BL21(DE3) hemG, pET24a plasmid
T1 sequence (P55826 35-537 Y362C): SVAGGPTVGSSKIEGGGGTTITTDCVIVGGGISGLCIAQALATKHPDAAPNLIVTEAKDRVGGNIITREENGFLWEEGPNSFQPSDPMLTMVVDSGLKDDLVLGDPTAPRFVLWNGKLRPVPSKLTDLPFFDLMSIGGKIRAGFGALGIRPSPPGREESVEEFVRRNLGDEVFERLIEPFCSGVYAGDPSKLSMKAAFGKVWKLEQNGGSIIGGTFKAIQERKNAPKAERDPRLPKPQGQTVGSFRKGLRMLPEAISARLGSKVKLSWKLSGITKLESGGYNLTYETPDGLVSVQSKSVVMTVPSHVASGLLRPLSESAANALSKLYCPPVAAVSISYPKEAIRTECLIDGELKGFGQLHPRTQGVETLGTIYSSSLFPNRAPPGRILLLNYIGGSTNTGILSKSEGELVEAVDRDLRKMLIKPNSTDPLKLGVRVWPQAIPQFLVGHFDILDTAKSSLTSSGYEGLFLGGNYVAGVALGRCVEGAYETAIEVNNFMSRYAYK
Summary of the method: (§1)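 AtPPO1 variants from a site-saturation library, codon-optimised and T7-driven in pET24a, were expressed in E. coli BL21(DE3) lacking hemG (hemG replaced by CmR). Growth in Terrific broth with 0.1 mM IPTG plus 6.25 ppm herbicide 0 or E, 0.78 ppm herbicide B, or DMSO was read as OD600 after 24 h at 37° C; inhibition was calculated against the DMSO culture.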

AtPPO1 Y361Q = target: T2, AtPPO1 Y361Q (Arabidopsis thaliana, UniProt P55826, Y361Q)
T2 construct: expressed in transfected cells; host or cells: E. coli BL21(DE3) hemG (pET24a, T7 promoter)
T2 sequence (P55826 35-537 Y361Q): T1 sequence (P55826 35-537 Y362C) with Y327Q, C328Y
Summary of the method: as §1

AtPPO1 P271C = target: T3, AtPPO1 P271C (Arabidopsis thaliana, UniProt P55826, P271C)
T3 construct: expressed in transfected cells; host or cells: E. coli BL21(DE3) hemG (hemG replaced by CmR), pET24a plasmid
T3 sequence (P55826 35-537 P271C): T1 sequence (P55826 35-537 Y362C) with P237C, C328Y
Summary of the method: as §1

AtPPO1 G481K = target: T4, AtPPO1 G481K (Arabidopsis thaliana, UniProt P55826, G481K)
T4 construct: expressed in transfected cells; host or cells: E. coli BL21(DE3) hemG, pET24a plasmid
T4 sequence (P55826 35-537 G481K): T1 sequence (P55826 35-537 Y362C) with C328Y, G447K
Summary of the method: as §1

Row | SMILES | inhibition at 0.78 ppm (AtPPO1 Y362C) | inhibition at 0.78 ppm (AtPPO1 Y361Q) | inhibition at 0.78 ppm (AtPPO1 P271C) | inhibition at 0.78 ppm (AtPPO1 G481K) | inhibition at 6.25 ppm (AtPPO1 Y362C) | inhibition at 6.25 ppm (AtPPO1 Y361Q) | inhibition at 6.25 ppm (AtPPO1 P271C) | inhibition at 6.25 ppm (AtPPO1 G481K)
1 | C#CCN1C(=O)C(F)(F)Oc2cc(F)c(-n3c(=O)n(C)c(=S)n(C)c3=O)cc21 [Herbicide B, trifludimoxazin] | 37% | 19% | 24% | 10% |  |  |  | 
2 | CCOC(=O)[C@]1(C)CC(c2cc(-n3c(=O)n(C)c(=S)n(C)c3=O)c(F)cc2Cl)=NO1 [Herbicide D, ethyl (5S)-3-[2-chloro-5-(3,5-dimethyl-2,6-dioxo-4-thioxo-1,3,5-triazinan-1-yl)-4-fluoro-phenyl]-5-methyl-4H-isoxazole-5-carboxylate] |  |  |  |  | 43% | 32% | 24% | 12%
3 | CC(C)N(C)S(=O)(=O)NC(=O)c1cc(-n2c(=O)cc(C(F)(F)F)n(C)c2=O)c(F)cc1Cl [Herbicide E, saflufenacil] |  |  |  |  | 58% | 0% | 66% | 0%
